Data published in ChEMBL document CHEMBL6109156, “Discovery of Dual PD-L1/HDAC3 Inhibitors for Tumor Immunotherapy” (J Med Chem, 2025).

Columns and labels:
B16-F10 [1] = test: Induction of apoptosis in mouse B16-F10 cells assessed as viable cells at 4 uM incubated for 48 hrs by Annexin V-FITC/PI staining based flow cytometry analysis (reference value: 92.3%); assay type: functional; conditions: read-out: Activity
B16-F10 [2] = test: Induction of cell cycle arrest in mouse B16-F10 cells assessed as accumulation of cells at G0/G1 phase at 1 uM incubated for 48 hrs by PI staining based flow cytometry analysis (reference value: 70.09%); assay type: functional
B16-F10 [3] = test: Induction of cell cycle arrest in mouse B16-F10 cells assessed as accumulation of cells at G2/M phase at 4 uM incubated for 48 hrs by PI staining based flow cytometry analysis (reference value: 5.87%); assay type: functional
B16-F10 [4] = test: Induction of apoptosis in mouse B16-F10 cells assessed as early apoptotic cells at 10 uM incubated for 48 hrs by Annexin V-FITC/PI staining based flow cytometry analysis (reference value: 0.45 %); assay type: functional
HCT-116 = test: Antiproliferative activity against human HCT-116 cells assessed as cell growth inhibition incubated for 48 hrs by MTT assay; assay type: functional, cell-based; conditions: HCT-116, 48 h
B16-F10 [5] = test: Induction of apoptosis in mouse B16-F10 cells assessed as viable cells at 10 uM incubated for 48 hrs by Annexin V-FITC/PI staining based flow cytometry analysis (reference value: 92.3%); assay type: functional; conditions: read-out: Activity
B16-F10 [6] = test: Induction of cell cycle arrest in mouse B16-F10 cells assessed as accumulation of cells at G2/M phase at 1 uM incubated for 48 hrs by PI staining based flow cytometry analysis (reference value: 5.87%); assay type: functional
Histone deacetylase 3 [7] = target: T1, Histone deacetylase 3 (Homo sapiens, UniProt O15379); test: Inhibition of human recombinant HDAC3 using Ac-Leu-Gly-Lys (Ac)-AMC as substrate preincubated for 10 mins followed by substrate addition and measured after 45 mins by TECAN microtiter plate reader analysis
T1 sequence (O15379 whole entry): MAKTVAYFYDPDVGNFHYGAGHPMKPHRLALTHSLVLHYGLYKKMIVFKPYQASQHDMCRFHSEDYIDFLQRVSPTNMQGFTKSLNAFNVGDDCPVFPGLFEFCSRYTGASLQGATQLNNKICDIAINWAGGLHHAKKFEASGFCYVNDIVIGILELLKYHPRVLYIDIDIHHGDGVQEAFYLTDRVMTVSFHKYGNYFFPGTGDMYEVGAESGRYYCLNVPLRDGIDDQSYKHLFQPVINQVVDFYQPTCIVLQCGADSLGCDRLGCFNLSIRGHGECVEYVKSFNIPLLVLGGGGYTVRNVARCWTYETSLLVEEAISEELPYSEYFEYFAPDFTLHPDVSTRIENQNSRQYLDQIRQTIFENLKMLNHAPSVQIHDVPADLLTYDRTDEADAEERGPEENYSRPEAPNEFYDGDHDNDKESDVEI

B16-F10 [8] = test: Induction of cell cycle arrest in mouse B16-F10 cells assessed as accumulation of cells at G2/M phase at 8 uM incubated for 48 hrs by PI staining based flow cytometry analysis (reference value: 5.87%); assay type: functional
B16-F10 [9] = test: Induction of cell cycle arrest in mouse B16-F10 cells assessed as accumulation of cells at S phase at 4 uM incubated for 48 hrs by PI staining based flow cytometry analysis (reference value: 24.04%); assay type: functional
B16-F10 [10] = test: Induction of apoptosis in mouse B16-F10 cells assessed as late apoptotic cells at 4 uM incubated for 48 hrs by Annexin V-FITC/PI staining based flow cytometry analysis (reference value: 5.02 %); assay type: functional
B16-F10 [11] = test: Immunomodulatory activity in mouse B16-F10 cells implanted in C57BL/6J mouse assessed as percentage of CD3 positive CD4 positive cells in tumor at 40 mg/kg, ip administered once daily for 9 days by flow cytometric analysis (reference value: 0.20 %); assay type: functional; conditions: time 9 day
[12] = Toxicity in C57BL/6J mouse implanted with mouse B16-F10 cells assessed as lung damage at 20 to 40 mg/kg, ip administered once daily for 9 days by H and E staining based analysis; assay type: organism-based; conditions: in vivo, 216 h, dose 20-40 mg/kg, time 9 day
B16-F10 [13] = test: Induction of apoptosis in mouse B16-F10 cells assessed as early apoptotic cells at 1 uM incubated for 48 hrs by Annexin V-FITC/PI staining based flow cytometry analysis (reference value: 0.45 %); assay type: functional
B16-F10 [14] = test: Induction of cell cycle arrest in mouse B16-F10 cells assessed as accumulation of cells at S phase at 1 uM incubated for 48 hrs by PI staining based flow cytometry analysis (reference value: 24.04%); assay type: functional
Histone deacetylase 3 [15] = target: T1, Histone deacetylase 3; test: Inhibition of human recombinant HDAC3 using Ac-Leu-Gly-Lys (Ac)-AMC as substrate at 1 uM preincubated for 10 mins followed by substrate addition and measured after 45 mins by TECAN microtiter plate reader analysis relative to control; conditions: time 55.0 min
B16-F10 [16] = test: Induction of cell cycle arrest in mouse B16-F10 cells assessed as accumulation of cells at G2/M phase at 2 uM incubated for 48 hrs by PI staining based flow cytometry analysis (reference value: 5.87%); assay type: functional
B16-F10 [17] = test: Induction of apoptosis in mouse B16-F10 cells assessed as viable cells at 2 uM incubated for 48 hrs by Annexin V-FITC/PI staining based flow cytometry analysis (reference value: 92.3%); assay type: functional; conditions: read-out: Activity
B16-F10 [18] = test: Induction of apoptosis in mouse B16-F10 cells assessed as early apoptotic cells at 4 uM incubated for 48 hrs by Annexin V-FITC/PI staining based flow cytometry analysis (reference value: 0.45 %); assay type: functional
B16-F10 [19] = test: Induction of cell cycle arrest in mouse B16-F10 cells assessed as accumulation of cells at G0/G1 phase at 8 uM incubated for 48 hrs by PI staining based flow cytometry analysis (reference value: 70.09%); assay type: functional
B16-F10 [20] = test: Induction of apoptosis in mouse B16-F10 cells assessed as late apoptotic cells at 8 uM incubated for 48 hrs by Annexin V-FITC/PI staining based flow cytometry analysis (reference value: 5.02 %); assay type: functional
[21] = Toxicity in C57BL/6J mouse implanted with mouse B16-F10 cells assessed as body weight loss at 20 to 40 mg/kg, ip administered once daily for 9 days; assay type: organism-based; conditions: in vivo, 216 h, dose 20-40 mg/kg, time 9 day
A-375 [22] = test: Antiproliferative activity against human A-375 cells assessed as cell growth inhibition incubated for 48 hrs by MTT assay; assay type: functional, cell-based; conditions: A-375, 48 h
A-375 [23] = test: Antiproliferative activity against human A-375 cells co-cultured with human Jurkat T cells incubated for 48 hrs by MTT assay; assay type: functional, cell-based; conditions: dose 0.0625-1 µM
B16-F10 [24] = test: Antitumor activity against mouse B16-F10 cells implanted in C57BL/6J mouse assessed as tumor growth inhibition at 20 mg/kg, ip administered once daily for 9 days; assay type: functional; conditions: B16-F10, 216 h, time 9 day, read-out: TGI
[25] = target: Programmed cell death protein 1/Programmed cell death 1 ligand 1 (Homo sapiens) (UniProt Q15116+Q9NZQ7); test: Inhibition of PD-1/PD-L1 (unknown origin) interaction assessed as inhibition rate at 0.1 uM by HTRF assay relative to control; assay type: protein-complex assay
B16-F10 [26] = test: Induction of apoptosis in mouse B16-F10 cells assessed as necrotic cells at 1 uM incubated for 48 hrs by Annexin V-FITC/PI staining based flow cytometry analysis (reference value: 2.24%); assay type: functional
B16-F10 [27] = test: Induction of cell cycle arrest in mouse B16-F10 cells assessed as accumulation of cells at G0/G1 phase at 4 uM incubated for 48 hrs by PI staining based flow cytometry analysis (reference value: 70.09%); assay type: functional
B16-F10 [28] = test: Induction of apoptosis in mouse B16-F10 cells assessed as early apoptotic cells at 8 uM incubated for 48 hrs by Annexin V-FITC/PI staining based flow cytometry analysis (reference value: 0.45 %); assay type: functional

IC50 (HCT-116): 2860 nM | IC50 (Histone deacetylase 3 [7]): 107 nM | inhibition (Histone deacetylase 3 [15]): 83.1% | IC50 (A-375 [22]): 3460 nM
Compound: CCCNNC(=O)CCCNCc1ccc(-c2cccc(-c3ccccc3)c2C)nc1OC
viability at 4 µM (B16-F10 [1]): 62.3% | Activity (B16-F10 [2]): 73.46% | Activity (B16-F10 [3]): 3.65% | Activity (B16-F10 [4]): 52.9% | viability at 10 µM (B16-F10 [5]): 31.3% | Activity (B16-F10 [6]): 4.75% | Activity (B16-F10 [8]): 2.69% | Activity (B16-F10 [9]): 4.69% | Activity (B16-F10 [10]): 16.4% | Activity (B16-F10 [11]): 2.8% | Activity [12]: Non-toxic | Activity (B16-F10 [13]): 3.34% | Activity (B16-F10 [14]): 21.79% | Activity (B16-F10 [16]): 4.96% | viability at 2 µM (B16-F10 [17]): 71.7% | Activity (B16-F10 [18]): 17.1% | Activity (B16-F10 [19]): 96.8% | Activity (B16-F10 [20]): 11.4% | Activity [21]: Non-toxic | Activity (A-375 [23]): Dose-dependent-effect | inhibition in vivo at 20 mg/kg (B16-F10 [24]): 48.9% | inhibition [25]: 55.4% | Activity (B16-F10 [26]): 2.63% | Activity (B16-F10 [27]): 91.66% | Activity (B16-F10 [28]): 32.8%
